Measured values taken from ChEMBL document CHEMBL1201862, “PubChem BioAssay data set” (2004).
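Results reflect a 48-hour exposure of cells in 96-well plates to compound at five concentrations. The concentration for 50% growth inhibition is given as GI50.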 Calls of active or inactive are those of the source. Cut-off read from the data, not from the text of the source: active = GI50 up to about 1.1 µM and inactive = higher.

Key:
Assay in all cases: NCI tumour cell line growth inhibition, 48 h
HOP-18 = system: HOP-18
LXFL 529 = system: LXFL 529
DLD-1 = system: DLD-1
RXF 631 = system: RXF 631
M19-MEL = system: M19-MEL
DMS-114 = system: DMS-114
SNB-78 = system: SNB-78
KM-20L2 = system: KM-20L2
XF498 = system: XF498

| Compound | GI50 (HOP-18) | GI50 (LXFL 529) | GI50 (DLD-1) | GI50 (RXF 631) | GI50 (M19-MEL) | GI50 (DMS-114) | GI50 (SNB-78) | GI50 (KM-20L2) | GI50 (XF498) |
| --- | --- | --- | --- | --- | --- | --- | --- | --- | --- |
| COC12OCCN(C)C1=CC(=O)C1=NNC(C)C12 (centres undefined) | > 100 µM (inactive) | > 100 µM (inactive) | > 100 µM (inactive) | > 100 µM (inactive) | > 100 µM (inactive) | > 100 µM (inactive) | > 100 µM (inactive) | – | – |
| CCOC1=C2N=C(Cc3ccccc3F)N=C2C(=O)c2ccccc21 | > 100 µM (inactive) | > 100 µM (inactive) | > 100 µM (inactive) | – | > 100 µM (inactive) | > 100 µM (inactive) | – | > 100 µM (inactive) | > 100 µM (inactive) |
| O=C1CCC(c2nc3ccccc3o2)C(=O)N1 (centres undefined) | > 100 µM (inactive) | > 100 µM (inactive) | > 100 µM (inactive) | > 100 µM (inactive) | > 100 µM (inactive) | > 100 µM (inactive) | > 100 µM (inactive) | > 100 µM (inactive) | – |
| O=C(O)CCNCCCCNCCC(=O)O | > 100 µM (inactive) | > 100 µM (inactive) | > 100 µM (inactive) | – | – | – | – | > 100 µM (inactive) | > 100 µM (inactive) |
| CN(C)/N=N/c1c[nH]nc1C(N)=O | > 100 µM (inactive) | > 100 µM (inactive) | > 100 µM (inactive) | – | > 100 µM (inactive) | > 100 µM (inactive) | – | > 100 µM (inactive) | > 100 µM (inactive) |
| COc1ccc(C=C(c2ccc(OCc3ccccc3)cc2)c2ccc(OCc3ccccc3)cc2)cc1 | > 100 µM (inactive) | > 100 µM (inactive) | > 100 µM (inactive) | > 100 µM (inactive) | > 100 µM (inactive) | > 100 µM (inactive) | > 100 µM (inactive) | > 100 µM (inactive) | > 100 µM (inactive) |
| Cc1c2ccncc2c(C)c2c1[nH]c1ccc(OC(C)(C)C)cc12 | – | 2.23 µM (inactive) | 2.39 µM (inactive) | 2.45 µM (inactive) | 2.14 µM (inactive) | 2.02 µM (inactive) | 2.41 µM (inactive) | 1.78 µM (inactive) | 1.93 µM (inactive) |
| CCCCCCCCCCn1cccc1/C=C/c1ccc(/C=C/c2cccn2CCCCCCCCCC)cc1 | > 100 µM (inactive) | > 100 µM (inactive) | > 100 µM (inactive) | – | > 100 µM (inactive) | > 100 µM (inactive) | > 100 µM (inactive) | > 100 µM (inactive) | > 100 µM (inactive) |
| N#CC1(CCCCl)CCCCC1 | 72.9 µM (inactive) | > 100 µM (inactive) | > 100 µM (inactive) | > 100 µM (inactive) | > 100 µM (inactive) | > 100 µM (inactive) | > 100 µM (inactive) | > 100 µM (inactive) | > 100 µM (inactive) |
| O=C(O)c1cc(S(=O)(=O)N/N=C\c2c3ccccc3[n+]([O-])c3ccccc23)ccc1O | 11.7 µM (inactive) | 12.2 µM (inactive) | 16.7 µM (inactive) | – | 13.3 µM (inactive) | 12.7 µM (inactive) | 20.6 µM (inactive) | 13.3 µM (inactive) | – |
| COc1ccc(Nc2nc3cc(C(F)(F)F)ccc3nc2-c2ccccc2)cc1OC | < 0.01 µM (active) | 49 µM (inactive) | 21.4 µM (inactive) | – | – | 10.3 µM (inactive) | 25.4 µM (inactive) | – | 1.71 µM (inactive) |
| O=C1c2ccccc2C(=O)C1C(c1ccc(F)cc1)C1C(=O)c2ccccc2C1=O | > 100 µM (inactive) | > 100 µM (inactive) | > 100 µM (inactive) | > 100 µM (inactive) | 61 µM (inactive) | > 100 µM (inactive) | > 100 µM (inactive) | > 100 µM (inactive) | > 100 µM (inactive) |
| CC1=Nn2c(nnc2-c2ccc(N)cc2)NC(C)(C)C1 | > 100 µM (inactive) | > 100 µM (inactive) | > 100 µM (inactive) | > 100 µM (inactive) | > 100 µM (inactive) | > 100 µM (inactive) | > 100 µM (inactive) | > 100 µM (inactive) | > 100 µM (inactive) |
| N#C/C(=C\c1cc(O)ccc1O)C(N)=O | – | 35.6 µM (inactive) | 70.6 µM (inactive) | 58.1 µM (inactive) | 51.3 µM (inactive) | 24.8 µM (inactive) | 25.6 µM (inactive) | 46.8 µM (inactive) | 65.3 µM (inactive) |
| CC(=O)OCC1OC(OC2CC3C(C)(C)C(O)CC[C@]3(C)C3CCC45CC4(CC[C@H]5C(C)CC(O)C4OC4(C)C)[C@]23C)C(O)C(O)C1O (some centres undefined) | 7.08 µM (inactive) | 5.83 µM (inactive) | 8.09 µM (inactive) | – | 4.27 µM (inactive) | 5.21 µM (inactive) | – | 8.13 µM (inactive) | 4.13 µM (inactive) |
| COc1ccc(O)c2c1C(=O)CCCC2=O | – | > 100 µM (inactive) | > 100 µM (inactive) | > 100 µM (inactive) | > 100 µM (inactive) | > 100 µM (inactive) | > 100 µM (inactive) | > 100 µM (inactive) | > 100 µM (inactive) |
| COc1ccc(C(=O)C=C2NCCN2)cc1 | > 100 µM (inactive) | > 100 µM (inactive) | > 100 µM (inactive) | – | > 100 µM (inactive) | > 100 µM (inactive) | > 100 µM (inactive) | > 100 µM (inactive) | – |
| Cc1ccc(NC(=O)NC(=O)c2ccc([N+](=O)[O-])cc2[N+](=O)[O-])cc1Oc1ncc(Cl)cn1 | 10.3 µM (inactive) | 0.36 µM (active) | 0.421 µM (active) | – | 0.741 µM (active) | 0.484 µM (active) | 0.346 µM (active) | 0.234 µM (active) | 0.843 µM (active) |
| Cc1cc(C)nc(NS(=O)(=O)c2ccc(Nc3c4ccccc4nc4c(C(=O)Nc5ccc(S(=O)(=O)Nc6cc(C)on6)cc5)ccc(Cl)c34)cc2)n1 | – | 18.5 µM (inactive) | 17.2 µM (inactive) | 20.7 µM (inactive) | 37.9 µM (inactive) | – | 29.2 µM (inactive) | 19.5 µM (inactive) | 18.7 µM (inactive) |
| CCOC(=O)C(Cc1ccccc1)NC(=O)c1nc[nH]c1/N=N/N(C)C (centres undefined) | – | > 100 µM (inactive) | > 100 µM (inactive) | – | > 100 µM (inactive) | > 100 µM (inactive) | – | – | – |
| CCCCCCCCCCCc1cc(=O)c2c(O)cccc2o1 | > 100 µM (inactive) | 55.1 µM (inactive) | > 100 µM (inactive) | > 100 µM (inactive) | 43.8 µM (inactive) | 38.7 µM (inactive) | > 100 µM (inactive) | – | 42.8 µM (inactive) |
| CCc1ccc(Cc2ccc(CC)c(NC(=O)C(=O)Cc3nc4ccccc4nc3C)c2CC)c(CC)c1NC(=O)C(=O)Cc1nc2ccccc2nc1C | – | 54.1 µM (inactive) | > 100 µM (inactive) | 84.9 µM (inactive) | > 100 µM (inactive) | 47.5 µM (inactive) | 76.2 µM (inactive) | > 100 µM (inactive) | – |
| N#CC1(N2CCCC2)CCC2(CC1)OCCO2 | – | – | – | – | > 10 µM (inactive) | > 100 µM (inactive) | > 100 µM (inactive) | > 100 µM (inactive) | – |
| NC(CCCNCc1ccccc1)C(=O)O (centres undefined) | > 100 µM (inactive) | > 100 µM (inactive) | > 100 µM (inactive) | > 100 µM (inactive) | > 100 µM (inactive) | > 100 µM (inactive) | – | > 100 µM (inactive) | – |
| C=CCOC(C)n1c(C)c(Br)c(=O)[nH]c1=O (centres undefined) | – | > 100 µM (inactive) | > 100 µM (inactive) | – | > 100 µM (inactive) | > 100 µM (inactive) | – | > 100 µM (inactive) | > 100 µM (inactive) |
| CCOP(=O)(OCC)C(C(=O)OC)C(=O)C(=O)Nc1ccc(Cl)cc1Cl (centres undefined) | 24 µM (inactive) | > 100 µM (inactive) | > 100 µM (inactive) | – | > 100 µM (inactive) | > 100 µM (inactive) | > 100 µM (inactive) | > 100 µM (inactive) | 3.78 µM (inactive) |
| C/C(=N\NS(=O)(=O)c1ccc(C)cc1)C(CN1CCCCC1)C(c1ccccc1)c1c(O)c2ccccc2oc1=O (centres undefined) | > 100 µM (inactive) | > 100 µM (inactive) | > 100 µM (inactive) | – | – | – | > 100 µM (inactive) | > 100 µM (inactive) | > 100 µM (inactive) |
